Assay results taken from PubChem BioAssay (NCI).
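Interpolation was linear, between the two tested concentrations surrounding the appropriate level; five concentrations were tested over 48 hours in 96-well plates. At the GI50, growth is halved. At the TGI there is no net growth.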

Tests used:
Assay in all cases: NCI anticancer screen, dose series, 48 h
A498 renal = system: A498 renal
A549 NSCLC = system: A549 NSCLC
HCT-116 colon = system: HCT-116 colon
HOP-92 NSCLC = system: HOP-92 NSCLC
IGROV1 ovarian = system: IGROV1 ovarian
MDA-MB-231 breast = system: MDA-MB-231 breast
SF-539 CNS = system: SF-539 CNS
SK-MEL-2 melanoma = system: SK-MEL-2 melanoma
SK-MEL-28 melanoma = system: SK-MEL-28 melanoma
SNB-75 CNS = system: SNB-75 CNS

Row | Compound | GI50 (A498 renal) [µM] | TGI (A498 renal) [µM] | GI50 (A549 NSCLC) [µM] | TGI (A549 NSCLC) [µM] | GI50 (HCT-116 colon) [µM] | TGI (HCT-116 colon) [µM] | GI50 (HOP-92 NSCLC) [µM] | TGI (HOP-92 NSCLC) [µM] | GI50 (IGROV1 ovarian) [µM] | TGI (IGROV1 ovarian) [µM] | GI50 (MDA-MB-231 breast) [µM] | TGI (MDA-MB-231 breast) [µM] | GI50 (SF-539 CNS) [µM] | TGI (SF-539 CNS) [µM] | GI50 (SK-MEL-2 melanoma) [µM] | TGI (SK-MEL-2 melanoma) [µM] | GI50 (SK-MEL-28 melanoma) [µM] | TGI (SK-MEL-28 melanoma) [µM] | GI50 (SNB-75 CNS) [µM] | TGI (SNB-75 CNS) [µM]
1 | O=C(Nc1ccncc1)C(=O)c1cn(S(=O)(=O)c2ccc(Br)cc2)c2ccccc12 | 3.17 | > 100 | 15.6 | > 100 | 3.71 | > 100 | 2.14 | 22.4 | 8.55 | > 100 | 10.2 | 83 | 8.03 | > 100 | 32 | > 100 | 4.77 | > 100 | 4 | 41.7
2 | COC(=O)[C@]12CC[C@@H](C)[C@H](C)[C@@H]1C1=CC[C@@H]3[C@@]4(C)CC(=O)[C@H](O)[C@@]5(C)COC(=C45)C[C@@]3(C)[C@]1(C)CC2 | 18.5 | 33.2 | 23.9 | 41.5 | 18.7 | 34.3 | 14.3 | 29.1 | 19.3 | 37.6 | 20.1 | 42.4 | 18.8 | 37.2 | 18.9 | 37.2 | 19.2 | 38.6 | 16 | 33
3 | COC(=O)c1cnc(=O)n(C2CC(O)C(CO)O2)c1 (centres undefined) | > 100 | > 100 | > 100 | > 100 | > 100 | > 100 | – | > 100 | > 100 | > 100 | > 100 | > 100 | > 100 | > 100 | > 100 | > 100 | > 100 | > 100 | > 100 | > 100
4 | O=C1/C(=C\c2ccc(Cl)cc2)CN(C(=S)Nc2ccccc2)C/C1=C\c1ccc(Cl)cc1 | 1.66 | 3.15 | 0.415 | 10.3 | 0.213 | 0.438 | 1.85 | 4.83 | 0.953 | 2.87 | 0.735 | 5.44 | 0.427 | 1.54 | 2.57 | 5.8 | 1.79 | 3.39 | 1.25 | 3.82
5 | O=C(Nc1n[nH]c2nc(-c3ccco3)c(Br)cc12)C1CC1 | > 12.5 | > 25 | > 25 | > 25 | > 25 | > 25 | > 25 | > 25 | > 25 | > 25 | > 25 | > 25 | > 25 | > 25 | > 25 | > 25 | > 25 | > 25 | > 9.08 | > 25
6 | N#C/C(=C\c1c(-c2ccccc2)[nH]c2ccccc12)C(=O)c1ccc(Cl)cc1 | 2.82 | 14.7 | 8.44 | > 68.8 | 0.68 | 23.9 | 3.35 | 22.1 | 4.65 | 41.5 | 4.09 | 47.8 | 0.715 | 3.99 | 7.09 | > 39.3 | 3.33 | 41.2 | 1.43 | 8.7
